Literature values in patent US20040034042A1, “Preservative composition” (priority 2002, published 2004).

Key:
[1] = tested on: A. parasiticus
[2] = tested on: Rhizopus, Penicillium and like fungi; details: literature statement; effects called insufficient

Cn1c(=O)c2c(ncn2C)n(C)c1=O [caffeine]
production of aflatoxin by A. parasiticus [1]: inhibits the production of aflatoxin
antibacterial activity to Rhizopus, Penicillium and like fungi [2]: exhibits antibacterial activity
